Columns and labels:
SH-SY-5Y cells [1] = assay: HPLC analysis of glutathione and thiols in SH-SY-5Y cells; type: cell-based, human
Protocol: (§1) Glutathione levels were quantified in homogenates of SH-SY-5Y cells. Cultures were rinsed twice with Tris-buffered saline (TBS), scraped from the plate in a small volume of TBS and homogenized on ice. Medium was also utilized for analysis of HCY along with cellular lysates, since HCY is normally exported from cells. Homogenates (100 μl) were reduced by mixing with 50 μl of 100 μM N-acetylcysteine or with 30 μl of 30 μM cystamine (as an internal standard) and 10 μl of tri-carboxyethylphosphine (100 mg/ml in 0.05 M HCl). Samples were vortexed, incubated at room temperature for 30 minutes, then centrifuged at 10,000×g for 10 minutes. 80 μl of the resulting supernatant were combined with 160 μl of 2 M boric acid/4 mM EDTA (pH 10.5), followed by 80 μl of 1.0 mg/ml SBDF [7-fluorobenzo-2-oxa-1,3-diazole-4-sulfonate] in boric acid/EDTA buffer). Samples were mixed, incubated for 60 minutes at 60° C., equilibrated to reach temperature, and 50 μl of the sample was then injected into a Hewlett Packard model 1090 HPLC, which is used with a 1046A fluorescence detector and a Hewlett Packard 4.6×60 mm high-speed analytical column packed with 3 μM ODs (C18) Hypersil silica. The mobile phase consisted of methanol/0.2 M acetate buffer pH 4.0 (2/98 by volume). Glutathione concentrations were then determined by comparison of peak area ratios of glutathione to the internal standard N-acetylcysteine in the sample compared to peak areas obtained for a glutathione standard curve. Samples were derived from 3-4 normal and 3-4 ApoE−/− mice for each dietary condition, from ≧2 independent experiments (total n≧6 for each diet for both experiments).
NAC directly scavenges ROS and also provide a source of intracellular cysteine for synthesis of glutathione during conditions of oxidative stress. […] Differentiated SH-SY-5Y cells with and without NAC treatment were subjected to HPLC along with 50 μM each of multiple thiol standards (“Standards”) as indicated in FIGS. 18A to 18C.

cortical neurons = assay: Intracellular ROS by DCFD fluorescence in cortical neurons; type: cell-based, mice; details: folate deprivation for two hours
Protocol: Intracellular reactive oxygen species (ROS) were monitored as described in […] et al., 1999 (J. Biol. Chem., 274:30322-30327). Briefly, cells were incubated for 30 minutes with dichloro-fluorescein diacetate (DCFD; acetoxymethyl ester; Molecular Probes, Inc., Eugene, Oreg.), which is used to detect intracellular peroxide levels. Incubation was followed by rinsing of cultures in serum-free medium and immediate capture of images using UV optics. Images were captured under epifluorescent and phase-contrast illumination using a DAGE CCL-72 cooled CCD camera via a Scion LG-3 frame grabber operated by NIH Image (see the Internet at rsb.info.nih.gov/nih-image). Images were then stored as PICT files on a Macintosh Power PC 7100AV for subsequent analysis. At least 100 cells in randomly-selected fields from duplicate cultures derived from multiple experiments were scored for fluorescent intensity using NIH Image analysis software. Representative background areas devoid of cells were similarly analyzed and subtracted from cell values to yield net densitometric values. All fields for each individual assay were illuminated, captured, and processed under identical settings. Corresponding phase-contrast images were obtained. Cell aggregates were excluded from the assays; only individual cells were quantified. Values were exported to Excel for statistical analyses using Student's t test. […]

SH-SY-5Y cells [2] = assay: HPLC of homocysteine in SH-SY-5Y cell lysates and medium; type: cell-based, human
Protocol: as §1
Medium was then decanted, cells were scraped from the plate and homogenized, and medium and cellular lysates, along with an aliquot of fresh medium that had not been in contact with cells, were subjected to HPLC analyses.

murine cortical neurons = assay: PHF-1 immunofluorescence in murine cortical neurons with or without folate; type: cell-based, mice; details: folate deficiency, two hours
Protocol: For immunocytochemistry to detect paired helical filament-1 (PHF-1) staining (as an index of tau phosphorylation), cells were fixed for 15 minutes with 4% paraformaldehyde in 0.1 M phosphate buffer and immunostained by sequential reaction with a mouse monoclonal PHF-1 antibody that was raised against tau from paired helical filaments isolated from the brains of Alzheimer disease patients. Incubation with PHF-1 antibody was followed by rhodamine conjugated goat anti-mouse IgG and visualization using methods known in the art. […] In these experiments, SH-SY-5Y cells were cultured in folate-deficient Dulbecco's Modified Essential Medium (DMEM; Sigma) in the absence of serum for two hours. Cortical neurons were prepared from 12 day embryonic C57/B16 day old mice using known methods. The cortical neurons were cultured for 3 days in neurobasal medium with B27 supplements ([…] et al., 1999, J. Biol. Chem., 274:30322-30327). […] Both the SH-SY-5Y cultures and the cortical neurons were processed for PHF-1 (paired helical filament 1) immunofluorescence using known methods ([…] et al., 1999 supra). Control cells cultured in the continued presence of normal folate levels were also processed. Phospho-tau was also examined using immunoblot analysis. […]

Nc1nc2ncc(CNc3ccc(C(=O)N[C@@H](CCC(=O)O)C(=O)O)cc3)nc2c(=O)[nH]1 [folate, folic acid]
total glutathione levels (SH-SY-5Y cells [1]; brief (two hour) folate deprivation): no significant change
depletion of total glutathione levels (SH-SY-5Y cells [1]; folate deprivation for 24 hours): approximately 45%
oxidized glutathione (SH-SY-5Y cells [1]; in the presence of folate): 4%
oxidized glutathione (SH-SY-5Y cells [1]; two hours of folate deprivation): 46%
ROS (cortical neurons): increased reactive oxygen species (ROS)
homocysteine levels within cell lysates (SH-SY-5Y cells [2]; both before and after folate deprivation): < 1 nM
homocysteine levels in medium (SH-SY-5Y cells [2]; cells cultured two hours in the absence of folate): approximately 300 nM
homocysteine levels in medium (SH-SY-5Y cells [2]; cells cultured two hours in the presence of folate): about 30 nM
average increase in PHF-1 immunofluorescence (murine cortical neurons): 1.5 fold

Reference: US8173618B2, “Formulations for reducing neuronal degeneration” (University of Massachusetts, priority 2003, dated 2012)
